Data reported in US10864273B2, “Thiobase compounds for photodynamic therapy” (CASE WESTERN RESERVE UNIVERSITY, priority 2015, dated 2020).
Read-outs that look alike come from different tables or passages of the source. One block for each compound: values may come before it.

Experiments:
[1] = Femtosecond broadband transient absorption spectroscopy of the thiothymine series (intersystem crossing, triplet yield); assay type: physicochemical
Experimental: Femtosecond transient absorption spectroscopy was performed using a Ti— Sapphire regenerative amplifier laser system (Libra-HE, Coherent, Inc.; 800 nm, 100 fs, 4.0 W at 1 kHz). 2.6 W of the 800 nm beam were used to pump an optical parametric amplifier (TOPAS, Quantronix/Light Conversion) to generate the excitation beam at selected wavelengths of 320, 335, and 360 nm. Contributions to the excitation beam from other wavelengths and polarizations were removed by a reflective wavelength filter (λ-filter) and a Glan-Taylor polarizer, respectively, and the polarization was randomized using a depolarizing plate in order to prevent rotational effects from contributing to the dynamics, as described in details elsewhere.
A Helios spectrometer (Ultrafast Systems, LLC.) was used for pump-probe measurements. A fraction of the fundamental (800 nm) beam from the Libra-HE was used to generate white light continuum (WLC). The Helios spectrometer uses an optical delay line with a maximum delay of ˜3 ns for the 800 nm beam, which was used to pump a continuously-moving 2 mm CaF2 plate for generation of the WLC broadband probe pulse covering the spectral range from ˜320-700 nm. The probe light was then passed through a 730 nm low-pass dichroic optical filter, so as to block residual fundamental beam and to avoid saturating the complementary metal-oxide-semiconductor (CMOS) detectors. The probe pulse was then split into two beams, both of which were recollimated and focused into the optical fibers leading to their respective CMOS detectors. In this setup, one of the beams serves as reference, while the other is used to probe the sample of interest. A synchronized chopper wheel was used to block every other pump pulse, such that the difference in absorption between two consecutive measurements gives the transient spectrum. The excitation beam was attenuated to 1 μJ/pulse at the sample using a neutral density optical filter before entering the spectrometer. The excitation pulse was focused to a beam diameter three times larger than that of the probe beam at the sample position. Detection time windows of 20 and 200 ps were used in this work.
All solutions were prepared using pH 7.4 aqueous phosphate buffer, with a total phosphate concentration of 16 mM. The solution was continuously stirred in a 2 mm optical path length quartz cell (Starna Cells, Inc.) using a Teflon-coated magnetic stirring bar so as to bring fresh sample to the pump-probe region for each measurement. The solution in the cuvette was replaced with a fresh sample, from the same stock solution, every 5-7 scans, so that all scans had no more than 5% decrease in absorbance at the lowest-energy absorption-band maximum as determined by steady-state absorption spectroscopy.
All broadband transient absorption data were corrected for group velocity dispersion (GVD) of the WLC using a home-made LabView program (National Instruments, Inc.) as previously described. 3 Analysis of transient absorption kinetics was performed in Igor Pro 6.32A (WaveMetrics, Inc.) using the target analysis method, as described previously, and a sequential kinetic model convoluted with an instrument response function of ˜200 fs (FWHM). The instrument response was determined from the coherence signal of neat methanol generated at the sample cell. Global fitting analysis was performed using 15 to 30 representative kinetic traces covering the full range of probe wavelengths. At least three independent datasets (i.e., recorded on three different days) were used in the analysis and all uncertainties are reported as twice the standard deviation of the average lifetime. Decay associated spectra shown in FIG. 7A were extracted from the global fitting analysis of the transient decay traces taken every third probe wavelength across the entire WLC range.

[2] = pH 7.4 phosphate buffer solution, cited from earlier work; for ΦT triplet quantum yield: previously reported values
[3] = O2-saturated acetonitrile solution; previously measured / standard value; cited from earlier work
[4] = cited from earlier work
[5] = Femtosecond to microsecond transient absorption spectroscopy of the thiouracil series (intersystem crossing, triplet yield, triplet decay, triplet-triplet extinction)
Text: Briefly, 800 nm, 100 fs fundamental pulses were generated with a Ti-Sapphire regenerative amplifier laser system (Libra-HE, Coherent, Inc.: 4.0 W, 1 kHz). The fundamental beam was used to produce pump wavelengths of 320, 335, and 350 nm via an optical parametric amplifier (TOPAS, Quantronix/Light Conversion). Unwanted wavelengths were removed from the pump beam using a reflective wavelength filter and a Glan-Taylor polarizer. A fraction of the remaining fundamental beam was focused into a continuously moving CaF2 plate (2 mm thick) to generate broadband white light probe pulses (320-700 nm). The intensity of the excitation beam was attenuated to 1 mJ per pulse at the sample position. The polarization of the pump beam was randomized before being focused into the sample to overlap with the white light continuum probe at a 3:1 beam diameter ratio. Pump-probe experiments were collected using a Helios spectrometer (Ultrafast Systems, LLC) and a home-made data acquisition software (LabView, National Instruments, Inc.).
Solutions of the 2tUra, 4tUra, and 2,4dtUra derivatives were prepared in aqueous phosphate-buffered saline at pH 7.4. […] Solutions were investigated in 2 mm optical path length quartz cells and the irradiated volume was continuously refreshed by stirring with a Teflon-coated magnetic stir bar. Contributions to the transient data from any putative photoproduct formation were prevented by replacing the solution with fresh stock solution every 5 scans, or before 6% sample degradation (as monitored by a decrease in the steady-state absorbance of the lowest-energy absorption band). The UVA excitation wavelength used was varied depending on the absorption spectrum of the specific thiouracil derivative investigated. For 2tUra, an excitation wavelength of 320 nm was used, whereas 2,4dtUra was excited at 335 and 350 nm, and 4tUra was excited at all three of these UVA wavelengths.
Decay of the triplet state of 4tUra and 2,4dtUra to the ground state was monitored using the same excitation and detection setups but probing with an electronically triggered broadband white light source (Eos, Ultrafast Systems, LLC) that has been conveniently integrated into the Helios spectrometer. This probe source has a spectral window from B375 to 800 nm, a time resolution of about 400 ps, and a temporal window of up to 120 ms. […] Data were collected with the solutions under a constant nitrogen flow, and exciting at 350 nm with 3 mJ per pulse for 10 min, corresponding to less than 5% degradation.
For each data set, between 50 and 100 traces were selected across the entire range of probe wavelengths and globally analyzed in Igor Pro 6.32A (WaveMetrics, Inc.). […] 83 The uncertainties reported for the triplet population lifetimes are twice the standard deviation from the average fitting of at least three independent datasets (i.e., recorded on three different days). Triplet-triplet absorption spectra were extracted from the global fitting analysis.

[6] = Singlet oxygen quantum yield by phosphorescence at 1270 nm, thiouracil series; assay type: physicochemical
Experimental: Solutions of 4tUra, 2,4dtUra, and the singlet oxygen standard (phenalenone; ΦΔ=0.98) were prepared in acetonitrile, each with an absorbance of 0.3 at 355 nm in a 1×1 cm quartz cuvette. The solutions were purged with oxygen for 30 min, followed by the determination of quantum yields from back-toback measurements of the singlet oxygen phosphorescence intensity at 1270 nm. The O2-saturated solutions were excited at 355 nm (Spectra Physics GCR-150-30: 7 ns pulse width) and the phosphorescence at 1270 nm was detected with a NIR sensitive photomultiplier tube (H10330A-45, Hamamatsu).
The singlet oxygen (^1O2) quantum yields of 4tUra and 2,4dtUra were measured by monitoring the characteristic phosphorescence of ^1O2 at 1270 nm with nanosecond time resolution.

[7] = system: adenosine 5′-monophosphate (5′-AMP); test: Photoreactivity with adenosine 5′-monophosphate upon 365 nm irradiation in N2-saturated buffer; conditions: with 5′-AMP, 1:5 molar ratio (24 and 120 mM); 365 nm irradiation; N2-saturated aqueous buffer pH 7.4
Experimental: Aqueous phosphate-buffered saline solutions, pH 7.4, containing either 4tUra or 2,4dtUra were prepared with and without 5′-AMP and loaded into 1×1 cm septum-top quartz cuvettes. The concentrations of the thiouracil derivatives and 5′-AMP were […], respectively. These concentrations were chosen in order to favor the bimolecular photoreaction between the thiouracil derivative and 50-AMP, while simultaneously maintaining the absorbance of the solutions within the linear dynamic range limit of the UV-visible spectrophotometer used. All solutions were purged with ultrapure nitrogen for 30 min and kept under constant nitrogen flow throughout the irradiation period. An optical parametric amplifier (TOPAS, Quantronix/Light Conversion) pumped by our Libra laser system (described above) was used for monochromatic (±1 nm) irradiation of the samples. […] Absorbance changes in the thiouracil solutions, with and without 5′-AMP, were monitored periodically using UV-visible spectroscopy (Cary 100 Bio) during irradiation at 365 nm for up to 90 min and while stored in the dark for up to three and a half days.
In order to scrutinize the light-induced reactivity of these sensitizers toward biomolecules, aqueous phosphate-buffered saline solutions of either 4tUra or 2,4dtUra were prepared in the presence of the RNA monomer adenosine 5′-monophosphate (5′-AMP) at a 1:5 molar ratio. […] The experimental conditions were chosen in order to facilitate the extraction of relative photoreaction rates from the changes in the steady-state absorption spectra with irradiation time. […]

[8] = Steady-state absorption spectroscopy, thymine series; assay type: physicochemical; conditions: phosphate buffer solution at pH 7.4
Text: 2-thiothymine (2tThy, 98% purity) was obtained from AK Scientific, 4-thiothymidine (4tThd, 99% purity) was obtained from Carbosynth Ltd., and 2-thiothymidine (2tThd) and 2,4-dithiothymine (2,4dtThy) were obtained from Sigma Aldrich. All compounds were used as received. The purity of these compounds was ensured by using fluorescence spectroscopy and by comparison with the published absorption maxima and their corresponding extinction coefficients. Phosphate buffer solutions were freshly prepared using 0.12 g of sodium dihydrogen phosphate and 0.089 g of disodium hydrogen phosphate dissolved in 100 mL of ultrapure water and adjusted to pH 7.4 using a 2 M NaOH solution. Steady-state absorption spectra were measured using a Cary 100 Bio spectrometer. All absorption spectra were corrected for the solvent background by subtraction of the absorption of the solvent.
Specifically, sulfur substitution of the C2 carbonyl in thymine results in about a 10 nm redshift in the absorption maximum, whereas substitution at the C4 position results in a redshift of about 70 nm. Remarkably, double-substitution results in about a 100 nm redshift of the lowest-energy absorption band of thymidine (ΔE=9905 cm^−1), without an appreciable change in the magnitude of the extinction coefficient at the corresponding wavelengths (1×10^4 M^−1 cm^−1). Replacement of an oxygen atom by a sulfur atom in a carbonyl bond is expected to shift the absorption spectrum to the red because the thiocarbonyl is weaker than the carbonyl bond and the excited electronic states in thiocarbonyl compounds are typically found at lower energies. However, the difference in bond strengths between a carbonyl and thiocarbonyl bond cannot solely explain the large spectral shift observed between 2tThy/2tThd and 4tThd. Furthermore, the redshift in the absorption spectrum of 2,4dtThy cannot simply be expressed as a linear combination of the absorption spectra of the 2tThy/2tThd and 4tThd derivatives. […] Glycosylation of 2tThy, generating 2tThd, results in a 2 nm redshift in the absorption maximum and about 2-fold increase in the molar absorptivity coefficients (FIG. 1B). The same effect has been previously documented in the natural bases and in other thiobases. Therefore, glycosylation of 2,4dtThy to form 2,4-dithiothymidine is expected to redshift the absorption spectrum slightly and to increase the molar absorptivity coefficients.

[9] = aqueous phosphate-buffered saline solution, pH 7.4

SMILES: Cc1cn([C@H]2C[C@H](O)[C@@H](CO)O2)c(=S)[nH]c1=O [2tThd, 2-thiothymidine]
τISC intersystem crossing lifetime ([1]; pH 7.4 phosphate buffer solution, probe 600 nm): 410 ± 60 fs
ΦT triplet quantum yield [2]: 0.9 ± 0.1

SMILES: Cc1c[nH]c(=S)[nH]c1=O [2tThy, 2-thiothymine]
intersystem crossing rate increase relative to Thd [1]: 1.2 fold
ΦT triplet quantum yield [2]: 0.9 ± 0.1
ΦΔ singlet oxygen quantum yield [3]: 0.36 ± 0.02

SMILES: O=c1cc[nH]c(=S)[nH]1 [2tUra, 2-thiouracil]
pKa [4]: 7.74
τISC intersystem crossing lifetime [5, 9]: 360 ± 30 fs

triplet-triplet extinction coefficient ([5]; at 600 nm, singlet depletion method): 3000 ± 600 M⁻¹ cm⁻¹
SMILES: O=c1[nH]ccc(=S)[nH]1 [4tUra, 4-thiouracil]
ΦΔ singlet oxygen quantum yield ([6]; O2-saturated acetonitrile, 355 nm excitation, phenalenone standard): 0.49±0.02
1O2 yield relative to uracil ([6]; excited to lowest-energy absorption band): 3.3 fold
1O2 yield ([6]; following UVA excitation): ca. 50%
photoreaction rate [7]: (0.39±0.04)×10^−9 M s^−1
pKa [4]: 8.0
τISC intersystem crossing lifetime [5, 9]: 240 ± 20 fs
κT triplet-state decay rate ([5]; aqueous phosphate-buffered saline solution, pH 7.4, 24 mM solutions, nitrogen-purged, 350 nm excitation): 1.7 ± 0.3 10^6 s^−1

maximum of lowest-energy absorption band [8]: ~267 nm
ε at maximum of lowest-energy absorption band [8]: ≈ 9.9×10^3 M^−1 cm^−1
SMILES: Cc1cn([C@H]2C[C@H](O)[C@@H](CO)O2)c(=O)[nH]c1=O [Thd, thymidine]
ΦT triplet quantum yield [2]: 0.014 ± 0.001
τISC intersystem crossing lifetime ([2]; recently reported value for thymidine): 760 fs
ΦΔ singlet oxygen quantum yield [3]: 0.07 ± 0.01
